Test system: HSV-2 G strain
Experiment: HSV-2 Antiviral Assay (Vero cells, cell viability)
Format: cell-based
Conditions: Human alphaherpesvirus 2, Vero, 120 h, Vero cells, 5 days
Protocol: Vero cells were cultured in Dulbecco's Modified Eagle Medium (DMVEM) supplemented with […] and 100 units/mL penicillin and streptomycin. The cells were passaged 2-3 times per week to maintain sub-confluent densities.
Vero cells were seeded into 96-well plates at a density of 1.0×10^4 cells per well and allowed to attach overnight. Following attachment, the media was replaced with 50 μL of infection medium (DMEM supplemented with 2% fetal bovine serum and 100 units/mL penicillin and streptomycin). A Tecan D300e digital dispenser was then used to add compounds to the culture using an 8-point 3-fold serial dilution format. The DMSO concentration was normalized to 0.5% for all treatments. Following compound addition, 50 μL of infection medium containing 160 TCID50 HSV-2 G strain was added to the cells and incubated at 37° C. for 5 days. After the incubation, 10 μL/well of WST-8 chromogenic reagent was added and the plates incubated at 37° C. for 3 hours. Following the incubation, cell viability was quantified by measuring the absorbance at 460 nm and 620 nm using a Tecan Infinite M1000 Pro plate reader.

[1] = 160 TCID50 HSV-2 G strain, cell viability

| SMILES | EC50 [1] | EC50 |
| --- | --- | --- |
| COc1ccc(F)cc1-c1ccc(N2CC3(COC3)CN(c3nc(C)c(S(C)(=O)=O)s3)C2=O)cc1 [Compound 435] | < 100 nM |  |
| Cc1nc(N2CCCN(c3ccc(-c4cc(C(F)(F)F)cc5c4ccn5C)cc3)C2=O)sc1S(N)(=O)=O [Compound 246] | < 100 nM |  |
| Cc1nc(N2CCCN(c3ccc(-c4cc(F)cc(C(F)F)c4F)cc3)C2=O)sc1S(N)(=O)=O [Compound 217] | < 100 nM |  |
| COc1ncc(F)cc1-c1ccc(N2CCCN(c3nc(C)c(S(N)(=O)=O)s3)C2=O)cc1 [Compound 239] | < 100 nM |  |
| COc1ccc(F)cc1-c1ccc(N2CC3(COC3)CN(c3nc(C)c(S(N)(=O)=O)s3)C2=O)cc1 [Compound 378] | < 100 nM |  |
| CN=[S@@](C)(=O)c1sc(N2CCCN(c3ccc(-c4ccccc4F)cc3)C2=O)nc1C (single isomer, unassigned) [Compound 147] | < 100 nM |  |
| CCC[S@@](=N)(=O)c1sc(N2CCCN(c3ccc(-c4cc(F)cc(F)c4F)cc3)C2=O)nc1C (single isomer, unassigned) [Compound 424] | < 100 nM |  |
| Cc1nc(N2CCCCN(c3ccc(-c4cc(F)ccc4F)cc3)C2=O)sc1[S@](C)(=N)=O (single isomer, unassigned) [Compound 427] | < 100 nM |  |
| Cc1nc(N2CCCN(c3ccc(-c4cc(F)cc5c(C)c(C(C)(C)F)sc45)cc3)C2=O)sc1S(N)(=O)=O [Compound 283] | 100 to 1000 nM |  |
| Cc1nc(N2CCCN(c3ccc(-c4ccccc4C#CC4CC4)cc3)C2=O)sc1S(N)(=O)=O [Compound 220] | < 100 nM |  |
| CCC[S@](=N)(=O)c1sc(N2CCCN(c3ccc(-c4cc(F)cc(F)c4F)cc3)C2=O)nc1C (single isomer, unassigned) [Compound 425] | < 100 nM |  |
| Cc1nc(N2CCCN(c3ccc(-c4cccc(C5(C#N)CC5)c4)cc3)C2=O)sc1S(N)(=O)=O [Compound 198] | < 100 nM |  |
| Cc1nc(N2CCCN(c3ccc(-c4cc(F)c(F)c(F)c4)cc3)C2=O)sc1S(N)(=O)=O [Compound 188] | 100 to 1000 nM |  |
| COc1c(F)cc(C#N)cc1-c1ccc(N2CCCN(c3nc(C)c(S(N)(=O)=O)s3)C2=O)cc1 [Compound 226] | 100 to 1000 nM |  |
| Cc1nc(N2CCCN(c3ccc(-c4cc(F)cc(F)c4O)cc3)C2=O)sc1S(N)(=O)=O [Compound 215] | < 100 nM |  |
| Cc1nc(N2CCCN(c3ccc(-c4cc(Cl)c(Cl)cn4)cc3)C2=O)sc1S(N)(=O)=O [Compound 234] | < 100 nM |  |
| COc1cc(-c2ccc(N3CCCN(c4nc(C)c(S(N)(=O)=O)s4)C3=O)cc2)c2scnc2c1 [Compound 252] | < 100 nM |  |
| Cc1nc(N2CCCN(c3ccc(-c4cncc5c4cnn5C)cc3)C2=O)sc1S(N)(=O)=O [Compound 288] | 100 to 1000 nM |  |
| Cc1nc(N2CC3(COC3)CN(c3ccc(-c4cc(F)ccn4)cc3)C2=O)sc1S(N)(=O)=O [Compound 379] | < 100 nM |  |
| Cc1nc(N2CC3(CC3)CN(c3ccc(-c4nnco4)cc3)C2=O)sc1S(N)(=O)=O [Compound 335] | 1000 to 5000 nM |  |
| Cc1nc(N2CC(C(=O)O)CN(c3ccc(-c4cc(F)ccc4F)cc3)C2=O)sc1S(N)(=O)=O (centres unmarked) [Compound 380] | 1000 to 5000 nM |  |

| SMILES | EC50 [1] | EC50 |
| --- | --- | --- |
| Cc1nc(N2C(=O)N(c3ccc(-c4cc(F)ccc4F)cc3)CCC2C)sc1S(N)(=O)=O (centres unmarked) [Compound 107, 2-(3-(2′,5′-Difluoro-[1,1′-biphenyl]-4-yl)-6-methyl-2-oxotetrahydropyrimidin-1(2H)-yl)-4-methylthiazole-5-sulfonamide] | < 100 nM |  |
| Cc1nc(N2CCCN(c3ccc(-c4cc(C5CC5)ccc4F)cc3)C2=O)sc1S(N)(=O)=O [Compound 205] | 100 to 1000 nM |  |
| Cc1nc(N2CCCN(c3ccc(-c4nn(C)c5ccccc45)cc3)C2=O)sc1S(N)(=O)=O [Compound 92] | < 100 nM |  |
| Cc1nc(N2CCCN(c3ccc(-c4cc(-c5cncs5)ccc4F)cc3)C2=O)sc1S(N)(=O)=O [Compound 230] | 100 to 1000 nM |  |
| CSc1ccccc1-c1ccc(N2CCCN(c3nc(C)c(S(N)(=O)=O)s3)C2=O)cc1 [Compound 11] | < 100 nM |  |
| CO[C@@H]1CN(c2ccc(-c3cc(F)ccc3F)cc2)C(=O)N(c2nc(C)c(S(N)(=O)=O)s2)C1 (single isomer, unassigned) [Compound 358] | 1000 to 5000 nM |  |
| Cc1nc(N2CCCN(c3ccc(-c4c(F)ccc5ncsc45)cc3)C2=O)sc1S(N)(=O)=O [Compound 70] | < 100 nM |  |
| Cc1nc(N2CCCN(c3ccc(-c4cc(C#N)ccc4F)cc3)C2=O)sc1S(N)(=O)=O [Compound 202] | < 100 nM |  |
| Cc1nc(N2CCCN(c3ccc(-c4cc(C#N)cc5nsnc45)cc3)C2=O)sc1S(N)(=O)=O [Compound 304] | < 100 nM |  |
| Cc1nc(N2CC(F)CN(c3ccc(-c4cc(F)ccc4F)cc3)C2=O)sc1S(=O)(=O)NCCO (centres unmarked) [Compound 413] | < 100 nM |  |
| NS(=O)(=O)c1sc(N2CCCN(c3ccc(-c4cc(F)cc5nsnc45)cc3)C2=O)nc1C(F)(F)F [Compound 438] | 1000 to 5000 nM |  |
| Cc1nc(N2CCCN(c3ccc(-c4ccnc5ncsc45)cc3)C2=O)sc1S(N)(=O)=O [Compound 272] | 1000 to 5000 nM |  |
| Cc1nc(N2CCCN(c3ccc(-c4cc(C(F)(F)F)cc5c4c(F)cn5C)cc3)C2=O)sc1S(N)(=O)=O [Compound 297] | 100 to 1000 nM |  |
| Cc1nc(N2CCCN(c3ccc(-c4cc(C#N)cc5c4ccn5C)cc3)C2=O)sc1S(N)(=O)=O [Compound 302] | 100 to 1000 nM |  |
| Cc1nc(N2CC[C@H](C)N(c3ccc(-c4cc(F)ccc4F)cc3)C2=O)sc1S(N)(=O)=O (single isomer, unassigned) [Compound 334] | < 100 nM |  |
| Cc1nc(N2CCCN(c3ccc(-c4cc(F)cc5nc(C6CC6)sc45)cc3)C2=O)sc1S(N)(=O)=O [Compound 253] | < 100 nM |  |
| COc1c(F)cc(F)cc1-c1ccc(N2CCCN(c3nc(C(F)(F)F)c(S(N)(=O)=O)s3)C2=O)cc1 [Compound 437] | < 100 nM |  |
| Cc1nc(N2CCCN(c3ccc(-c4cc(F)cc5nc(C(F)(F)F)sc45)cc3)C2=O)sc1S(N)(=O)=O [Compound 257] | < 100 nM |  |
| Cc1nc(N2CCCN(c3ccc(-c4nccn5cncc45)cc3)C2=O)sc1S(N)(=O)=O [Compound 262] | 1000 to 5000 nM |  |
| COc1c(F)cc(F)cc1-c1ccc(N2CC(F)CN(c3nc(C)c(S(N)(=O)=O)s3)C2=O)cc1 (centres unmarked) [Compound 366] | < 100 nM |  |
| COCCCCCCCCCCNS(=O)(=O)c1sc(N2CCCN(c3ccc(-c4cc(F)ccc4F)cc3)C2=O)nc1C [Compound 421] | < 100 nM |  |

| SMILES | EC50 [1] | EC50 |
| --- | --- | --- |
| Cc1nc(N2C(=O)N(c3ccc(-c4cc(F)ccc4F)cc3)CC[C@H]2C)sc1S(N)(=O)=O (single isomer, unassigned) [Compound 108] | < 100 nM |  |
| Cc1nc(N2CCCN(c3ccc(-c4cc(F)ccn4)cc3)C2=O)sc1S(=O)(=O)NC1CC1 [Compound 408] | < 100 nM |  |
| COCCCCNS(=O)(=O)c1sc(N2CCCN(c3ccc(-c4cc(F)ccc4F)cc3)C2=O)nc1C [Compound 390] | < 100 nM |  |
| Cc1nc(N2CCCN(c3ccc(-c4cccc5c(C)cnn45)cc3)C2=O)sc1S(N)(=O)=O [Compound 247] | < 100 nM |  |
| Cc1nc(N2CCCCN(c3ccc(-c4cc(F)cc5nsnc45)cc3)C2=O)sc1S(N)(=O)=O [Compound 313] | < 100 nM |  |
| COc1ccc(F)cc1-c1ccc(N2C[C@H](C)CN(c3nc(C)c(S(N)(=O)=O)s3)C2=O)cc1 (single isomer, unassigned) [Compound 331] | < 100 nM |  |
| Cc1nc(N2CCCN(c3ccc(-c4cc(C(F)(F)F)cc5c4c(C#N)cn5C)cc3)C2=O)sc1S(N)(=O)=O [Compound 290] | 1000 to 5000 nM |  |
| COc1cc(Cl)c(F)c(-c2ccc(N3CCCN(c4nc(C)c(S(N)(=O)=O)s4)C3=O)cc2)c1 [Compound 218] | < 100 nM |  |
| Cc1nc(N2CCN(c3ccc(-c4cc(F)cc5nsnc45)cc3)C2=O)sc1S(N)(=O)=O [Example 314] |  | 28 nM |
| Cc1nc(N2CCCN(c3ccc(-c4ccccc4F)cc3)C2=O)sc1S(=O)(=O)C(F)F [Compound 412, 1-(5-((difluoromethyl)sulfonyl)-4-methylthiazol-2-yl)-3-(2′-fluoro-[1,1′-biphenyl]-4-yl)tetrahydropyrimidin-2(1H)-one] | 100 to 1000 nM |  |
| Cc1nc(N2CCCN(c3ccc(-c4cccc(Cl)c4)cc3)C2=O)sc1S(N)(=O)=O [Compound 191] | < 100 nM |  |
| Cc1nc(N2C[C@@H](O)CN(c3ccc(-c4cc(F)ccc4F)cc3)C2=O)sc1S(N)(=O)=O (single isomer, unassigned) [Compound 355] | < 100 nM |  |
| Cc1nc(N2CC3(COC3)CN(c3ccc(-c4cc(F)cc5nsnc45)cc3)C2=O)sc1S(N)(=O)=O [Compound 340] | < 100 nM |  |
| Cc1nc(N2CCCN(c3ccc(-c4cccc5c4C(F)(F)CO5)cc3)C2=O)sc1S(N)(=O)=O [Compound 264] | < 100 nM |  |
| Cc1nc(N2CCCN(c3ccc(-c4cccc(S(C)(=O)=O)c4)cc3)C2=O)sc1S(N)(=O)=O [Compound 201] | 1000 to 5000 nM |  |
| COCc1c(F)cc(F)cc1-c1ccc(N2CCCN(c3nc(C)c(S(N)(=O)=O)s3)C2=O)cc1 [Compound 221] | < 100 nM |  |
| Cc1nc(N2CCCN(c3ccc(-c4cc(F)cc5nc(C#N)sc45)cc3)C2=O)sc1S(N)(=O)=O [Compound 279] | 100 to 1000 nM |  |
| Cc1nc(N2CCCN(c3ccc(-c4nc(C#N)cs4)cc3)C2=O)sc1S(N)(=O)=O [Compound 48] | < 100 nM |  |
| COCCNS(=O)(=O)c1sc(N2CCCN(c3ccc(-c4cc(F)ccc4F)cc3)C2=O)nc1C [Compound 387] | < 100 nM |  |
| Cc1nc(N2CC(C)CN(c3ccc(-c4ccccc4)cc3)C2=O)sc1S(N)(=O)=O (centres unmarked) [Compound 326] | < 100 nM |  |

— patent US20260103471A1, “CYCLIC UREA THIAZOLYL COMPOUNDS FOR TREATMENT OF HSV” (Assembly Biosciences, Inc., priority 2022, published 2026)
